The target in the assay is HIV-1 protease (Human immunodeficiency virus, UniProt O90785). The assay can be described thus: Protease Inhibtion Assay. Conditions: pH 5.5. From the text: Protease inhibition fluorescence-based assay using cyclic ureas to inhibit HIV-protease.

Structures are written as SMILES. A value given as a limit tells only on which side of the number the result lay.

Sequence of HIV-1 protease (O90785 whole entry): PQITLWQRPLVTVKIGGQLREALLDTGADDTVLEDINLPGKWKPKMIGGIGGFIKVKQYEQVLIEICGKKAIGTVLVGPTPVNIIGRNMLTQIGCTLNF

In the case of `CCNc1[nH]nc2ccc(CN3C(=O)N(Cc4ccc5n[nH]c(NCC)c5c4)[C@H](Cc4ccccc4)[C@H](O)[C@@H](O)[C@H]3Cc3ccccc3)cc12` [3-alkylaminoindazole cyclic urea, (Et)], the Ki was 0.041 nM.
The compound `CCCCN1C(=O)N(Cc2ccc3[nH]nc(N)c3c2)[C@H](Cc2ccccc2)[C@H](O)[C@@H](O)[C@H]1Cc1ccccc1` [(4R,5S,6S,7R)-1-(3-Amino-1H-indazol-5-ylmethyl)-4,7-dibenzyl-3-butyl-5,6-dihydroxy-[1,3]diazepan-2-one] registered an inhibition constant Ki of 0.021 nM.
`CCCCCN1C(=O)N(Cc2ccc3[nH]nc(N)c3c2)[C@H](Cc2ccccc2)[C@H](O)[C@@H](O)[C@H]1Cc1ccccc1` [n-Pentyl cyclic urea] yielded a Ki of 0.041 nM.
In turn, `O=C1N(Cc2ccc3[nH]ncc3c2)[C@H](Cc2ccccc2)[C@H](O)[C@@H](O)[C@@H](Cc2ccccc2)N1Cc1ccc2[nH]ncc2c1` [(4R,5S,6S,7R)-4,7-dibenzyl-5,6-dihydroxy-1,3-bis(1H-indazol-5-ylmethyl)-1,3-diazepan-2-one] had a Ki of 0.018 nM.
In turn, `Nc1n[nH]c2ccc(CN3C(=O)N(CC4CC4)[C@H](Cc4ccccc4)[C@H](O)[C@@H](O)[C@H]3Cc3ccccc3)cc12` [Cyclopropylmethyl cyclic urea] showed an inhibition constant Ki of 0.02 nM.
With `Nc1n[nH]c2ccc(CN3C(=O)N(Cc4ccccc4)[C@H](Cc4ccccc4)[C@H](O)[C@@H](O)[C@H]3Cc3ccccc3)cc12` [DMP850], affinity was put at a Ki of 0.031 nM.
As to `CC(C)Nc1[nH]nc2ccc(CN3C(=O)N(Cc4ccc5n[nH]c(NC(C)C)c5c4)[C@H](Cc4ccccc4)[C@H](O)[C@@H](O)[C@H]3Cc3ccccc3)cc12` [3-alkylaminoindazole cyclic urea, (i-Pr)], the Ki stood at 0.09 nM.
The compound `Nc1n[nH]c2ccc(CN3C(=O)N(Cc4ccc5ccccc5c4)[C@H](Cc4ccccc4)[C@H](O)[C@@H](O)[C@H]3Cc3ccccc3)cc12` [2-Naphthylmethyl cyclic urea] showed a Ki of 0.023 nM.
As for `CNc1[nH]nc2ccc(CN3C(=O)N(Cc4ccc5n[nH]c(NC)c5c4)[C@H](Cc4ccccc4)[C@H](O)[C@@H](O)[C@H]3Cc3ccccc3)cc12` [3-alkylaminoindazole cyclic urea, (Me)], the figure is 0.018 nM; as for `Nc1n[nH]c2ccc(CN3C(=O)N(Cc4ccc5[nH]nc(N)c5c4)[C@H](Cc4ccccc4)[C@H](O)[C@@H](O)[C@H]3Cc3ccccc3)cc12` [3-Aminoindazole, 2], 0.01 nM; as for `O=C1N(Cc2ccc(CO)cc2)[C@H](Cc2ccccc2)[C@H](O)[C@@H](O)[C@@H](Cc2ccccc2)N1Cc1ccc(CO)cc1` [(4R,5S,6S,7R)-4,7-dibenzyl-5,6-dihydroxy-1,3-bis({[4-(hydroxymethyl)phenyl]methyl})-1,3-diazepan-2-one], 0.31 nM.
Turning to `Nc1n[nH]c2ccc(CN3C(=O)N(CC4CCC4)[C@H](Cc4ccccc4)[C@H](O)[C@@H](O)[C@H]3Cc3ccccc3)cc12` [Cyclobutylmethyl cyclic urea], the Ki is 0.016 nM.
With `Nc1cccc(CN2C(=O)N(Cc3cccc(N)c3)[C@H](Cc3ccccc3)[C@H](O)[C@@H](O)[C@H]2Cc2ccccc2)c1` the figure was 0.3 nM.
With `CCCNc1[nH]nc2ccc(CN3C(=O)N(Cc4ccc5n[nH]c(NCCC)c5c4)[C@H](Cc4ccccc4)[C@H](O)[C@@H](O)[C@H]3Cc3ccccc3)cc12` [3-alkylaminoindazole cyclic urea, (n-Pr)] the figure was 0.23 nM.
The compound `CCCCCCN1C(=O)N(Cc2ccc3[nH]nc(N)c3c2)[C@H](Cc2ccccc2)[C@H](O)[C@@H](O)[C@H]1Cc1ccccc1` [n-Hexyl cyclic urea] showed a Ki of 0.13 nM.
Compound `Nc1n[nH]c2ccc(CN3C(=O)N(Cc4ccc5[nH]nc(N)c5c4)[C@H](Cc4ccccc4)[C@H](O)[C@@H](O)[C@H]3Cc3ccccc3)cc12` [3-alkylaminoindazole cyclic urea, (H)] registered a Ki of less than 0.01 nM.

For the origin of these results see BindingDB's records for doi:10.1016/s1074-5521(98)90117-x (Dupont Pharmaceuticals, 1998).
